For 36 molecules, inhibition and Ki results are on record in patent publication US7998978B2 (Pfizer Inc., priority 2006, dated 2011).

The target in one assay is T1, JNK1α1 (Homo sapiens, UniProt P45983).
T1 construct: catalytic domain containing amino acids 1-364 and N-terminal hexahistidine tag; hexahistidine (His6) (N); made in house; host or cells: E. coli BL21 (DE3)
T1 sequence (P45983 1-364): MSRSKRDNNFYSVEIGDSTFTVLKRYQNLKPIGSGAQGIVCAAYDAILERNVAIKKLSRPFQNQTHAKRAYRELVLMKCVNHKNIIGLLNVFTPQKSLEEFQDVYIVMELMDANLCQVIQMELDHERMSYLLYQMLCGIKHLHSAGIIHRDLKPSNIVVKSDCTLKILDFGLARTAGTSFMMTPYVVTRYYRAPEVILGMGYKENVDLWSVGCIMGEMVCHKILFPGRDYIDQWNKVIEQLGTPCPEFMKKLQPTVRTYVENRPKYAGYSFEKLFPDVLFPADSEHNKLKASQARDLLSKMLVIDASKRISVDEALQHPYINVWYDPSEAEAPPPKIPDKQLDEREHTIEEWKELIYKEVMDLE
The assay is described as follows: Coupled spectrophotometric (PK/LDH) JNK1α1 assay: % inhibition and Ki determination. Format: biochemical. The conditions noted are these: @1 uM; read-out: % Inhibition JNK-1. The method, boiled down: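 Initial rates were taken from the absorbance decrease at 340 nm at 30° C. Ki was fitted with a tight-binding model over 11 concentrations (top 100 μM); single-point inhibition was tested at 1 or 10 μM.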
For `CN(C)c1ncccc1NC(=O)c1cccc2cnc(N[C@H]3CC[C@H](O)CC3)nc12` [Example 319, N-[2-(dimethylamino)pyridin-3-yl]-2-[(trans-4-hydroxycyclohexyl)amino]quinazoline-8-carboxamide], the inhibition (commonly how much of the control response was suppressed) at 1 µM came to 27%.

`O[C@H]1CC[C@H](Nc2ncc3cccc(OCCN4CCOCC4)c3n2)CC1` [Example 250, trans-4-{[8-(2-morpholin-4-ylethoxy)quinazolin-2-yl]amino}cyclohexanol]: the inhibition at 1 µM amounted to 24%.

On to `CN1C(=O)OC[C@@H]1COc1ccc2cnc(N[C@H]3CC[C@H](O)CC3)nc2c1` [Example 289, 4-[({2-[(trans-4-hydroxycyclohexyl)amino]quinazolin-7-yl}oxy)methyl]-3-methyl-1,3-oxazolidin-2-one], for which the inhibition at 1 µM came to 69%.

For `CN(C)C(C)(C)COc1ccc2cnc(N[C@H]3CC[C@H](O)CC3)nc2c1` [Example 269, trans-4-({7-[2-(dimethylamino)-2-methylpropoxy]quinazolin-2-yl}amino)cyclohexanol], the inhibition at 1 µM came to 29%.

`O=C1CC[C@H](COc2ccc3cnc(N[C@H]4CC[C@H](O)CC4)nc3c2)N1` [Example 284, (5R)-5-[({2-[(trans-4-hydroxycyclohexyl)amino]quinazolin-7-yl}oxy)methyl]pyrrolidin-2-one]: the inhibition at 1 µM came to 53%.

In the case of `O[C@H]1CC[C@H](Nc2ncc3ccc(OC(CN4CCOCC4)c4ccccc4)cc3n2)CC1` (stereo partly drawn) [Example 298, trans-4-{[7-(2-morpholin-4-yl-1-phenylethoxy)quinazolin-2-yl]amino}cyclohexanol], the inhibition at 1 µM came to 18%.

Regarding `CN1CCC[C@H]1COc1ccc2cnc(N[C@H]3CC[C@H](O)CC3)nc2c1` [Example 273, trans-4-[(7-{[(2S)-1-methylpyrrolidin-2-yl]methoxy}quinazolin-2-yl)amino]cyclohexanol], the inhibition at 1 µM was 24%.

The assay is the same for the next values; noted with them: @10 uM; read-out: % Inhibition JNK-1.
As to `Cc1nccn1CCNC(=O)c1cccc2cnc(N[C@H]3CC[C@H](O)CC3)nc12` [Example 485, 2-[(trans-4-hydroxycyclohexyl)amino]-N-[2-(2-methyl-1H-imidazol-1-yl)ethyl]quinazoline-8-carboxamide], the inhibition at 10 µM turned out to be 72%.

Take `CC(C)Oc1ccc(CNc2cc3cc(-c4cn[nH]c4)ccc3cn2)cc1CO` [Example 234, [2-isopropoxy-5-({[6-(1H-pyrazol-4-yl)isoquinolin-3-yl]amino}methyl)phenyl]methanol]: the inhibition at 10 µM was determined as 19%.

Turning to `COc1ccccc1-c1ncc(CNc2cc3cc(-c4cn[nH]c4)ccc3cn2)cn1` [Example 232, N-{[2-(2-methoxyphenyl)pyrimidin-5-yl]methyl}-6-(1H-pyrazol-4-yl)isoquinolin-3-amine], the inhibition at 10 µM was found to be 46%.

For `CN1CCN(C)C(COc2cccc3cnc(N[C@H]4CC[C@H](O)CC4)nc23)C1` (stereo partly drawn) [Example 264, trans-4-({8-[(1,4-dimethylpiperazin-2-yl)methoxy]quinazolin-2-yl}amino)cyclohexanol], the inhibition at 10 µM turned out to be 46%.

The same assay, now with this note: JNK-1.
As to `O=C(N[C@H](CO)c1ccccc1)c1ccc2cnc(NC3CCC3)nc2c1` [Example 392, 2-(cyclobutylamino)-N-[(1S)-2-hydroxy-1-phenylethyl]quinazoline-7-carboxamide], the affinity corresponds to a Ki of 0.385 µM. This lies in the sub-micromolar range.

With `CC(C)c1ncc(NC(=O)c2ccc3cnc(N[C@H]4CC[C@H](O)CC4)nc3c2)cn1` [Example 359, 2-[(trans-4-hydroxycyclohexyl)amino]-N-(2-isopropylpyrimidin-5-yl)quinazoline-7-carboxamide], the affinity, expressed as Ki, was 1.72 µM.

Turning to `FCCN[C@H]1CC[C@H](Nc2ncc3cccc(OC4CCOCC4)c3n2)CC1` [Example 189, trans-N-(2-fluoroethyl)-N′-[8-(tetrahydro-2H-pyran-4-yloxy)quinazolin-2-yl]cyclohexane-1,4-diamine], the inhibition constant Ki (commonly the equilibrium dissociation constant of an inhibitor or competing ligand from its target) turned out to be 0.877 µM.

In the case of `Cn1ncc(NC(=O)c2ccc3cnc(N[C@H]4CC[C@H](O)CC4)nc3c2)n1` [Example 358, 2-[(trans-4-hydroxycyclohexyl)amino]-N-(2-methyl-2H-1,2,3-triazol-4-yl)quinazoline-7-carboxamide], the affinity, expressed as Ki, was 1.7 µM. Compared with the last molecule, the Ki is about 1.9-fold higher.

`CC(=O)N[C@H]1CC[C@H](Nc2ncc3cccc(C(=O)N[C@@H](C)CO)c3n2)CC1` [Example 133, 2-{[trans-4-(acetylamino)cyclohexyl]amino}-N-[(1S)-2-hydroxy-1-methylethyl]quinazoline-8-carboxamide]: the affinity, expressed as Ki, was 0.21 µM.

With `Cc1oc(-c2ccccc2)nc1CC(=O)Nc1cc2cc(-c3cn[nH]c3)ccc2cn1` [Example 51, 2-(5-methyl-2-phenyl-1,3-oxazal-4-yl)-N-[6-(1H-pyrazol-4-yl)isoquinolin-3-yl]acetamide], the Ki stood at 0.008 µM.

Molecule `O=C(NCc1nc2cc(F)ccc2[nH]1)c1ccc2cnc(N[C@H]3CC[C@H](O)CC3)nc2c1` [Example 354, N-[(5-fluoro-1H-benzimidazol-2-yl)methyl]-2-[(trans-4-hydroxycyclohexyl)amino]quinazoline-7-carboxamide] yielded an inhibitory constant (Ki) of 1.23 µM.

Molecule `CC(C)C[C@@H](CO)NC(=O)c1ccc2cnc(NC3CCCCC3)nc2c1` [Example 374, 2-(cyclohexylamino)-N-[(1S)-1-(hydroxymethyl)-3-methylbutyl]quinazoline-7-carboxamide] displayed an inhibition constant Ki of 0.102 µM.

The molecule `COc1ccc2c(c1OC)CC[C@H]2C(=O)Nc1cc2cc(-c3cn[nH]c3)ccc2cn1` [Example 23, (R)-4,5-dimethoxy-N-[6-(1H-pyrazol-4-yl)isoquinolin-3-yl]indane-1-carboxamide] yielded a Ki of 0.002 µM.

On to `C[C@@H](CO)NC(=O)c1ccc2cnc(N[C@H]3CC[C@H](O)CC3)nc2c1` [Example 403, 2-[(trans-4-hydroxycyclohexyl)amino]-N-[(1S)-2-hydroxy-1-methylethyl]quinazoline-7-carboxamide], for which the Ki was 0.637 µM.

In turn, `Cc1sc(-c2ccccc2)nc1CC(=O)Nc1cc2cc(-c3cn[nH]c3)ccc2cn1` [Example 46, 2-(5-methyl-2-phenyl-1,3-thiazol-4-yl)-N-[6-(1H-pyrazol-4-yl)isoquinolin-3-yl]acetamide] gave an inhibition constant (Ki) of 0.005 µM.

`c1ccc(-c2nc(CNc3cc4cc(-c5cn[nH]c5)ccc4cn3)c[nH]2)cc1` [Example 225, N-[(2-phenyl-1H-imidazol-4-yl)methyl]-6-(1H-pyrazol-4-yl)isoquinolin-3-amine] gave a Ki of 5.16 µM. Compared with the last molecule, the Ki is about 1000-fold higher.

`CC(C)N[C@H]1CC[C@H](Nc2ncc3cccc(OC4CCOCC4)c3n2)CC1` [Example 191, trans-N-isopropyl-N′-[8-(tetrahydro-2H-pyran-4-yloxy)quinazolin-2-yl]cyclohexane-1,4-diamine] returned an inhibition constant (Ki) of 0.698 µM.

`C[C@@H](O)CNC(=O)c1cccc2cnc(N[C@H]3CC[C@H](O)CC3)nc12` [Example 120, 2-[(trans-4-hydroxycyclohexyl)amino]-N-[(2R)-2-hydroxypropyl]quinazoline-8-carboxamide] had a Ki of 0.147 µM.

Turning to `O=C(N[C@H](CO)CC1CCCCC1)c1ccc2cnc(N[C@H]3CC[C@H](O)CC3)nc2c1` [Example 386, N-[(1S)-2-cyclohexyl-1-(hydroxymethyl)ethyl]-2-[(trans-4-hydroxycyclohexyl)amino]quinazoline-7-carboxamide], affinity was put at a Ki of 0.271 µM.

`O=C(NCCN1CCOCC1)c1ccc2cnc(N[C@H]3CC[C@H](O)CC3)nc2c1` [Example 61, 2-[(trans-4-hydroxycyclohexyl)amino]-N-(2-morpholin-4-ylethyl)quinazoline-7-carboxamide] registered a Ki of 0.525 µM. This Ki lies about 1.9-fold higher than the previous one.

On to `COc1ccc(CC(=O)Nc2cc3cc(-c4cnn(C)c4)ccc3cn2)cc1` [Example 4, 2-(4-methoxyphenyl)-N-[6-(1-methyl-1H-pyrazol-4-yl)isoquinolin-3-yl]acetamide], for which the affinity, expressed as Ki, was 0.0008 µM. Against the preceding molecule, the Ki is about 660-fold lower.

`O=C(Nc1cc2cc(-c3cn[nH]c3)ccc2cn1)C1COc2ccccc2C1` (stereo not drawn) [Example 38, N-[6-(1H-pyrazol-4-yl)isoquinolin-3-yl]chromane-3-carboxamide] showed a Ki of 0.014 µM.

Turning to `O=C(N[C@H](CO)c1ccccc1)c1ccc2cnc(N[C@H]3CC[C@H](O)CC3)nc2c1` [Example 95, 2-[(trans-4-hydroxycyclohexyl)amino]-N-[(1S)-2-hydroxy-1-phenylethyl]quinazoline-7-carboxamide], the affinity corresponds to a Ki of 0.074 µM.

For `O[C@H]1CC[C@H](Nc2ncc3cccc(OCCc4cn[nH]c4)c3n2)CC1` [Example 245, trans-4-({8-[2-(1H-pyrazol-4-yl)ethoxy]quinazolin-2-yl}amino)cyclohexanol], affinity was put at a Ki of 0.239 µM.

As to `O=C(NC1CCOC1)c1cccc2cnc(N[C@H]3CC[C@H](O)CC3)nc12` (stereo partly drawn) [Example 111, 2-[(trans-4-hydroxycyclohexyl)amino]-N-(tetrahydrofuran-3-yl)quinazoline-8-carboxamide], affinity was put at a Ki of 0.142 µM.

The molecule `O=C(Cn1cc(-c2ccccn2)nn1)Nc1cc2cc(-c3cn[nH]c3)ccc2cn1` [Example 30, N-[6-(1H-pyrazol-4-yl)isoquinolin-3-yl]-2-(4-pyridin-2-yl-1H-1,2,3-triazol-1-yl)acetamide] registered an inhibition constant (Ki) of 0.018 µM.

`CC[C@H](CO)NC(=O)c1cccc2cnc(N[C@H]3CC[C@H](O)CC3)nc12` [Example 458, 2-[(trans-4-hydroxycyclohexyl)amino]-N-[(1R)-1-(hydroxymethyl)propyl]quinazoline-8-carboxamide] gave a Ki of 0.374 µM.

Regarding `O=C(CCc1cccc(C(F)(F)F)c1)Nc1cc2cc(-c3cn[nH]c3)ccc2cn1` [Example 42, N-[6-(1H-pyrazol-4-yl)isoquinolin-3-yl]-3-[3-(trifluoromethyl)phenyl]propanamide], the inhibition constant (Ki) was 0.005 µM.

Consider `O=C(NCCO)c1ccc2cnc(N[C@H]3CC[C@H](O)CC3)nc2c1` [Example 346, 2-[(trans-4-hydroxycyclohexyl)amino]-N-(2-hydroxyethyl)quinazoline-7-carboxamide], for which the inhibitory constant (Ki) was found to be 0.945 µM.
